# Source: patent US20060029967A1, “Assay for nitrous oxide neurologic syndrome” (priority 2002, published 2006)
# Legend:
# methionine synthase [1] = molecular target: T1, methionine synthase (Homo sapiens, UniProt Q99707); assay: Case report: infant with MTHFR deficiency anesthetized with nitrous oxide; assay type: in vivo; design: from tissue; host or cells: patient in vivo; no tissue assayed for methionine synthase; details: infant with inherited MTHFR deficiency; two anesthetics with 60% nitrous oxide and 0.75% halothane (45 and 270 minutes)
# Description: A child discovered to have 5,10-methylenetetrahydrofolate reductase (MTHFR, […]) deficiency (OMIM #236250) died after two anesthetics using nitrous oxide (Beckman, D. R., et al., Birth Defects Orig. Artic. Ser. 23:47-64, 1987). MTHFR catalyzes the synthesis of 5-methyltetrahydrofolate. Sequence analysis of RNA transcripts and genomic DNA from the patient and family members, together with direct assays of fibroblast MTHFR activity, reveal that the enzyme deficiency was caused by a novel MTHFR mutation (1755→A) which changes conserved methionine 581 to an isoleucine, co-inherited with two common MTHFR polymorphisms (677C→T, 1298A→C) each associated with depressed enzyme function. (Frosst, P., et al., Nat. Genet. 10:111-3, 1995; van der Put, N. M., et al., Am. J. Hum. Genet. 62:1044-51, 1998).
# The patient was normal […] when a mass was noted on the left lower extremity. Although not recognized prior to the patient's surgery, both the parent and uncle have serum total homocysteine levels >30.0 μM (normal 5.4-13.9 μM). On life-long, high dose vitamin B supplements, the proband's sibling has a homocysteine level of 4.3 μM. Neither the […] nor the sibling has received nitrous oxide. […]
# methionine synthase [2] = molecular target: T1, methionine synthase; details: cited from earlier work
# methionine synthase [3] = molecular target: methionine synthase (Mus musculus, UniProt A6H5Y3); details: mice exposed to nitrous oxide; cited from earlier work
# methionine synthase [4] = details: pigs exposed to nitrous oxide; cited from earlier work
# methionine synthase [5] = molecular target: T1, methionine synthase; details: recovery in cultured cells; de novo synthesis of the enzyme required to restore activity; cited from earlier work
# methionine synthase [6] = molecular target: methionine synthase (Rattus norvegicus, UniProt Q9Z2Q4); details: rats exposed to nitrous oxide; cited from earlier work
# Sequence of methionine synthase (Rattus norvegicus, UniProt Q9Z2Q4) (Q9Z2Q4 whole entry): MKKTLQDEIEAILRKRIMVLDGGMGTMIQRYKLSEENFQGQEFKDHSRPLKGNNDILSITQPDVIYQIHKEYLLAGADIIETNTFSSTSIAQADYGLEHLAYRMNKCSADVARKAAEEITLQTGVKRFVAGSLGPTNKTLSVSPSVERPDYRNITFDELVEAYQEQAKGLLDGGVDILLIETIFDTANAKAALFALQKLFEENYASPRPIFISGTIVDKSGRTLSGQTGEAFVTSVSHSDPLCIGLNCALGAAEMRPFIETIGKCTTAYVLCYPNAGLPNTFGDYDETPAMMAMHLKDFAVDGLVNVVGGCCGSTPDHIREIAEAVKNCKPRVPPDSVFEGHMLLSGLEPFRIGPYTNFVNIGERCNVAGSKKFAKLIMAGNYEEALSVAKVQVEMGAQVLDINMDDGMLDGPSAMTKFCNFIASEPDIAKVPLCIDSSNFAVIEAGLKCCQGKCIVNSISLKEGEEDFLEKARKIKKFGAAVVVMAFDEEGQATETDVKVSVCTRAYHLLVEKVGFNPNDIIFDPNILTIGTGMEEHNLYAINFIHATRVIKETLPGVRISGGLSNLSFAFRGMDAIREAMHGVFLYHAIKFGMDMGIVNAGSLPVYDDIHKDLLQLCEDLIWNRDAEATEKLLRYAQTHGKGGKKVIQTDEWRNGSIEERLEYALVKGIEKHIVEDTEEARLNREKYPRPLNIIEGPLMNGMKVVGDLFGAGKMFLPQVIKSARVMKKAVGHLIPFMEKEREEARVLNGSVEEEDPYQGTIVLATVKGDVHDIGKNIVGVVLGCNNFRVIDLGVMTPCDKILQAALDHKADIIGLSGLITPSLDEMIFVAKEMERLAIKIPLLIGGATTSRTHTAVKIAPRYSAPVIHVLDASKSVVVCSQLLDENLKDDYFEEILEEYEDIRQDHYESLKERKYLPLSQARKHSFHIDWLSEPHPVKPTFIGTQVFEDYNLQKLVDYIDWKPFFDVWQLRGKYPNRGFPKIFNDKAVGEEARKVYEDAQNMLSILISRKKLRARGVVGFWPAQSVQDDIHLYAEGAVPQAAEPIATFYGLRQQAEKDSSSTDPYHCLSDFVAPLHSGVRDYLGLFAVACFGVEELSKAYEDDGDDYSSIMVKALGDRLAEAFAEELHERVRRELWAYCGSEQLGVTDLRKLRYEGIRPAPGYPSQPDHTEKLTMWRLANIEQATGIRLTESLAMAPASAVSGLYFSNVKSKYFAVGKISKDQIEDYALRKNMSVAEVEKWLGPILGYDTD
# T1 sequence (Q99707 whole entry): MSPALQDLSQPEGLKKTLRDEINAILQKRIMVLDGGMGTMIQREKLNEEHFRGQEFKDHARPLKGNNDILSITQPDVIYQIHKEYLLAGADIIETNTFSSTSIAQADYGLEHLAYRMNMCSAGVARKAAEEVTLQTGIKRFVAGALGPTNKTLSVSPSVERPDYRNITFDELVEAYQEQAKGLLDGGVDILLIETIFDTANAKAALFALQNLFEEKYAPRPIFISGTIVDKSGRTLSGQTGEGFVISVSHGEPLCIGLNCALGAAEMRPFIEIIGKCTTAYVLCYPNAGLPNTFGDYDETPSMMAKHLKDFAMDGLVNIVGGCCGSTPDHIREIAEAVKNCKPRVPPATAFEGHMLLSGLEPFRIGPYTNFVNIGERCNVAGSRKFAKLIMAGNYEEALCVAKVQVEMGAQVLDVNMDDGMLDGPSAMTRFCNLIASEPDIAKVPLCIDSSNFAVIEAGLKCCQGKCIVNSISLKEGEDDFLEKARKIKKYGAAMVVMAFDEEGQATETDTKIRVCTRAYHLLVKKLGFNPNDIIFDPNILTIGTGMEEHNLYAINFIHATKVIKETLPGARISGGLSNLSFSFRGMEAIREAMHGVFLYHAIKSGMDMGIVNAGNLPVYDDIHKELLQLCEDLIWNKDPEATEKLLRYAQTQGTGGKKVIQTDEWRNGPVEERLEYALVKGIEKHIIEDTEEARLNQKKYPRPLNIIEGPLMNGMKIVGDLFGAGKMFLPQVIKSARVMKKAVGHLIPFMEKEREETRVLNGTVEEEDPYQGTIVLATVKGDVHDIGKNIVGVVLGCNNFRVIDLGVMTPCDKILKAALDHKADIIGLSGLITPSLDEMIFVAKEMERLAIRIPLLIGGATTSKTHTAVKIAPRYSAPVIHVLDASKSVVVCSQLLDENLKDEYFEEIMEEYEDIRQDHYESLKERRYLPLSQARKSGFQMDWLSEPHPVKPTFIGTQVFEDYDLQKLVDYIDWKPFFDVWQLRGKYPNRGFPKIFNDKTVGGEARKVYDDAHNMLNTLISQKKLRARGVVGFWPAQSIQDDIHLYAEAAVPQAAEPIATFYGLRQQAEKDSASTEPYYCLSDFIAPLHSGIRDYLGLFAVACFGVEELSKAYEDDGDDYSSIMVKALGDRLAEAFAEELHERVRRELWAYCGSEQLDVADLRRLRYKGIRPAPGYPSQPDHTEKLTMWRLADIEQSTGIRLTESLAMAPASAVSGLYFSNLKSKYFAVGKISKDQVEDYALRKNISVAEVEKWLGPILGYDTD
# Sequence of methionine synthase (Mus musculus, UniProt A6H5Y3) (A6H5Y3 whole entry): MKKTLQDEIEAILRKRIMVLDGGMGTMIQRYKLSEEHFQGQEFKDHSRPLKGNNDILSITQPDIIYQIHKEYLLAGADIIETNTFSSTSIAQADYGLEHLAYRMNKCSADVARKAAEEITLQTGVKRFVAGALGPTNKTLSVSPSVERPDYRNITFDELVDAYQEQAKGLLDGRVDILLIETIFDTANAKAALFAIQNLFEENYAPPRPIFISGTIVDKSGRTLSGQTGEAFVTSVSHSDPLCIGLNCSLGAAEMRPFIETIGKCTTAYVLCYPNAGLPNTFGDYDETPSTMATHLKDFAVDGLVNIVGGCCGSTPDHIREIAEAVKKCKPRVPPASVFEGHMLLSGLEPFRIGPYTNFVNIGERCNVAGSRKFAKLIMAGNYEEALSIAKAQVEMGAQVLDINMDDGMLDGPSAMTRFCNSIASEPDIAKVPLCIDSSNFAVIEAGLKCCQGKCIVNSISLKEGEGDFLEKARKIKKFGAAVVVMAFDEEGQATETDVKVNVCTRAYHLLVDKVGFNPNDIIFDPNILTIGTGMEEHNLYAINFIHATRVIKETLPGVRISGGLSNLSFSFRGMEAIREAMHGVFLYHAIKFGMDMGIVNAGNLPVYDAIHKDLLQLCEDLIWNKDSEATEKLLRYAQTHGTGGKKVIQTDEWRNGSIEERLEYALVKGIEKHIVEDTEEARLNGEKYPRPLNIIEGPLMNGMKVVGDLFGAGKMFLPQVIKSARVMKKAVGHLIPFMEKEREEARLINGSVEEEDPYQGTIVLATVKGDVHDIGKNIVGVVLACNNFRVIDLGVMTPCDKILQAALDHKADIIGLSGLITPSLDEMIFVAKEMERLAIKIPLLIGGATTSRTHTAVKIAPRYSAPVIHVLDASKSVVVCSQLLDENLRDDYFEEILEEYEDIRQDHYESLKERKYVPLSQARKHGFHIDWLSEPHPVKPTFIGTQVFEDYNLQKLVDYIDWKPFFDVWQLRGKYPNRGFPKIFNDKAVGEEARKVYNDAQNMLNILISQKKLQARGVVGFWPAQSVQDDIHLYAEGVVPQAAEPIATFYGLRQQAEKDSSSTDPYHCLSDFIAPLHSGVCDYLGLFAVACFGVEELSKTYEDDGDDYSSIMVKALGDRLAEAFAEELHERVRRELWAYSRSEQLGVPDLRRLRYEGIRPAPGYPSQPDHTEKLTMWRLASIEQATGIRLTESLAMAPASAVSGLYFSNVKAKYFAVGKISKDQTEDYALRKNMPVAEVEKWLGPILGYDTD
structure (smiles),measurement,setting,value
[N-]=[N+]=O [nitrous oxide],clinical outcome after nitrous oxide anesthesia,methionine synthase [1],caused the patient's death
same,Residual methionine synthase activity,methionine synthase [2]; following greater than 200 minutes of nitrous oxide administration,approaches zero
same,mean half-time of inactivation of methionine synthase,methionine synthase [2]; nitrous oxide administration,46 min
same,delayed recovery of enzyme activity,methionine synthase [3],≥ 4 days
same,delayed recovery of enzyme activity,methionine synthase [4],≥ 4 days
same,nature of nitrous oxide-mediated inhibition,methionine synthase [5],irreversible
same,delayed recovery of enzyme activity,methionine synthase [6],≥ 4 days
